SMILES strings stand for the structures. pIC50: −log10 of the molar value.

For assay [1], the system named is Human immunodeficiency virus 1. Description: Antiviral activity against HIV1 3b in MT4 cells assessed as decrease in […] p24 core antigen in presence of normal human serum. The format is functional. Conditions: for IC95: Human immunodeficiency virus 1, 3b, MT4, read-out: CIC95.
For assay [2], the target named is Human immunodeficiency virus type 1 integrase (Human immunodeficiency virus 1, UniProt Q7ZJM1). Nature of the assay: Inhibition of HIV integrase activity by HIV strand transfer assay.
Assay [3] has as its system Human immunodeficiency virus 1. Description: Antiviral activity against HIV13b in MT4 cells assessed as decrease in HIV1 p24 core antigen in presence of fetal bovine serum. Type of assay: functional, 3b. The settings on record: for IC95: Human immunodeficiency virus 1, 3b, MT4, read-out: CIC95.

As for `CN1CCN(S(=O)(=O)c2ccccc2)CC1c1nc(C(=O)NCc2ccc(F)cc2)c(O)c(=O)n1C` (centres undefined), the IC95 in assay [1] turned out to be 500 nM; in assay [3], 30 nM. Also, the pIC50 in assay [2] is 8.15.
Consider `CN1CCN(S(=O)(=O)N(C)C)CC1c1nc(C(=O)NCc2ccc(F)cc2)c(O)c(=O)n1C` (centres undefined), for which the IC95 in assay [1] came to 130 nM; in assay [3], 60 nM. In assay [2], this compound gave a pIC50 of 8.10.
The matching figures for `CC1CCN(C)C1c1nc(C(=O)NCc2ccc(F)cc2)c(O)c(=O)n1C` (centres undefined): 5000 nM, 2500 nM and 6.15.
As for `CN1CCOCC1c1nc(C(=O)NCCc2ccccc2)c(O)c(=O)n1C` (centres undefined), the IC95 in assay [1] and in assay [3] was more than 8000 nM each time. In addition, the pIC50 in assay [2] was 7.15.
With `CN1CC(c2nc(C(=O)NCc3ccc(F)cc3)c(O)c(=O)n2C)N(C)CC1=O` (centres undefined), the IC95 in assay [1] and in assay [3] was 1250 nM in each case. In assay [2], this compound showed a pIC50 of 7.30.
Take `COc1cccc(CNC(=O)c2nc(C3COCCN3C)n(C)c(=O)c2O)c1` (centres undefined): the IC95 in assay [1] and in assay [3] was 125 nM each time. Also, the pIC50 in assay [2] was 6.85.
`Cn1c(C2COCCN2)nc(C(=O)NCc2ccc(F)cc2)c(O)c1=O` (centres undefined): the IC95 in assay [1] and in assay [3] was more than 1000 nM each time. Moreover, the pIC50 in assay [2] is 7.30.
As for `CN1CCOCC1c1nc(O)c(O)c(C(=O)NCc2ccc(F)cc2)n1` (centres undefined), in assay [1], the IC95 came to 230 nM. In assay [2], this compound had a pIC50 of 7.52.
As for `CN1CCOCC1c1nc(C(=O)NCc2ccc(F)c(F)c2)c(O)c(=O)n1C` (centres undefined), the IC95 in assay [1] was 63 nM; in assay [3], 31 nM. The compound also showed a pIC50 in assay [2] of 7.68.
For `CN(C)CC(=O)N1CCN(C)C(c2nc(C(=O)NCc3ccc(F)cc3)c(O)c(=O)n2C)C1` (centres undefined) the same measures were 1000 nM, 500 nM and 8.40.
`CN1CC[C@@H](O)C[C@H]1c1nc(C(=O)NCc2ccc(F)cc2)c(O)c(=O)n1C`: the IC95 in assay [1] and in assay [3] was 500 nM throughout. Further, the pIC50 in assay [2] is 7.68.
Regarding `CC(=O)N[C@H]1C[C@@H](c2nc(C(=O)NCc3ccc(F)cc3)c(O)c(=O)n2C)N(C)C1`, the IC95 in assay [1] and in assay [3] was more than 1000 nM throughout. Also, the pIC50 in assay [2] was 7.21.
As for `CC(=O)N1CCOCC1c1nc(C(=O)NCc2ccc(F)cc2)c(O)c(=O)n1C` (centres undefined), the IC95 in assay [1] and in assay [3] was more than 1000 nM in each case. In assay [2], this compound showed a pIC50 of 7.82.
As for `CN1CCN(C(=O)OC(C)(C)C)CC1c1nc(C(=O)NCc2ccc(F)cc2)c(O)c(=O)n1C` (centres undefined), the IC95 in assay [1] came out at 810 nM; in assay [3] it was 130 nM. This compound also showed a pIC50 in assay [2] of 7.39.
For the compound `CC(C)N1CCN(C)C(c2nc(C(=O)NCc3ccc(F)cc3)c(O)c(=O)n2C)C1` (centres undefined), the IC95 in assay [1] and in assay [3] was 500 nM throughout. Also, in assay [2], the pIC50 was 6.89.
`Cn1c(C2COCCN2C(=O)OC(C)(C)C)nc(C(=O)NCc2ccc(F)cc2)c(O)c1=O` (centres undefined): the IC95 in assay [1] and in assay [3] was more than 1000 nM in each case. Also, in assay [2], the pIC50 is 7.70.
For the compound `CN1CCN(C(=O)c2ccccc2)CC1c1nc(C(=O)NCc2ccc(F)cc2)c(O)c(=O)n1C` (centres undefined), in assay [1], the IC95 came to 250 nM. Moreover, the pIC50 in assay [2] was 7.92.
Take `CC1CCC(c2nc(C(=O)NCc3ccc(F)cc3)c(O)c(=O)n2C)N1C` (centres undefined): the IC95 in assay [1] and in assay [3] was more than 1000 nM in each case. The pIC50 in assay [2] is 6.16.
With `CCO[C@@H]1C[C@@H](c2nc(C(=O)NCc3ccc(F)cc3)c(O)c(=O)n2C)N(C)C1`, the IC95 in assay [1] is 210 nM; in assay [3] it was 170 nM. The compound also gave a pIC50 in assay [2] of 6.70.
Consider `CN1CCOCC1c1nc(C(=O)NCc2cccc(F)c2)c(O)c(=O)n1C` (centres undefined), for which the IC95 is 250 nM in assay [1] and 125 nM in assay [3]. Besides, the pIC50 in assay [2] was 7.21.
For `CN1CCNCC1c1nc(C(=O)NCc2ccc(F)cc2)c(O)c(=O)n1C` (centres undefined), the IC95 was 500 nM in assay [1] and 750 nM in assay [3]. The compound also gave a pIC50 in assay [2] of 6.70.
The matching figures for `CN1CCC[C@H]1c1nc(C(=O)NCc2ccc(F)cc2)c(O)c(=O)n1C`: more than 1000 nM, more than 1000 nM and 7.21.
Turning to `CN(Cc1ccccc1)C(=O)c1nc(C2COCCN2C)n(C)c(=O)c1O` (centres undefined), the IC95 in assay [1] and in assay [3] was more than 8000 nM in each case. The pIC50 in assay [2] was less than 5.30.
On to `Cc1cc(CNC(=O)c2nc(C3COCCN3C)n(C)c(=O)c2O)ccc1F` (centres undefined), for which the IC95 in assay [1] amounted to 42 nM; in assay [3], 16 nM. In addition, the pIC50 in assay [2] is 7.07.
For the compound `CN1CCOCC1c1nc(C(=O)NCc2ccc(F)cc2)c(O)c(=O)n1C.O=C(O)C(F)(F)F` (racemic), the CIC95 in assay [1] came to 100 µM; in assay [3], 65 µM.
For `CCNC(=O)N1CCN(C)C(c2nc(C(=O)NCc3ccc(F)cc3)c(O)c(=O)n2C)C1` (centres undefined), the IC95 in assay [1] was more than 1000 nM; in assay [3] it was 250 nM. In addition, the pIC50 in assay [2] was 7.28.
On to `CC(=O)N1CCN(C)CC1c1nc(C(=O)NCc2ccc(F)cc2)c(O)c(=O)n1C` (centres undefined), for which the IC95 in assay [1] and in assay [3] was more than 1000 nM each time. Further, the pIC50 in assay [2] is 5.40.
For the compound `CN1CCOCC1c1nc(C(=O)NCc2ccccc2)c(O)c(=O)n1C` (centres undefined), the IC95 in assay [1] and in assay [3] was 156 nM in each case. Also, in assay [2], the pIC50 was 7.18.
Turning to `CCN1CCOCC1c1nc(C(=O)NCc2ccc(F)cc2)c(O)c(=O)n1C` (centres undefined), the figures for the IC95 in assay [1] and in assay [3] were 90 nM and 50 nM, respectively. This compound also gave a pIC50 in assay [2] of 7.48.
The matching figures for `CN1CCOCC1c1nc(C(=O)NCc2ccccc2F)c(O)c(=O)n1C` (centres undefined): 625 nM, 156 nM and 6.76.
For `C[C@@H]1C[C@@H](c2nc(C(=O)NCc3ccc(F)cc3)c(O)c(=O)n2C)N(C)C1`, the IC95 in assay [1] and in assay [3] was more than 1000 nM each time. The compound also had a pIC50 in assay [2] of 6.72.
Take `CN1CCOCC1c1nc(C(=O)NCc2cccc(Cl)c2)c(O)c(=O)n1C` (centres undefined): the IC95 in assay [1] amounted to 63 nM; in assay [3], 16 nM. The compound further gave a pIC50 in assay [2] of 7.21.
`CN1CCS(=O)(=O)CC1c1nc(C(=O)NCc2ccc(F)cc2)c(O)c(=O)n1C` (centres undefined): the IC95 in assay [1] and in assay [3] was more than 1000 nM in each case. This compound showed a pIC50 in assay [2] of 6.85.
On to `CN1CCOCC1c1nc(C(=O)NCc2cccc(Br)c2)c(O)c(=O)n1C` (centres undefined), for which the IC95 in assay [1] was determined as 63 nM; in assay [3], 16 nM. Besides, the pIC50 in assay [2] was 7.72.
The matching figures for `CN1CCOCC1c1nc(C(=O)NCc2ccc(F)c(Cl)c2)c(O)c(=O)n1C` (centres undefined): 31 nM, less than 8 nM and 7.55.
For the compound `CN1C[C@@H](NS(C)(=O)=O)C[C@H]1c1nc(C(=O)NCc2ccc(F)cc2)c(O)c(=O)n1C`, the IC95 in assay [1] and in assay [3] was 500 nM each time. In assay [2], this compound showed a pIC50 of 7.52.
For the compound `CN1CCOCC1c1nc(C(=O)NCc2ccc(F)c(Br)c2)c(O)c(=O)n1C` (centres undefined), the values for the IC95 in assay [1] and in assay [3] were 125 nM and 31 nM, respectively. Moreover, the pIC50 in assay [2] was 7.36.
Regarding `CCN1CCN(C)C(c2nc(C(=O)NCc3ccc(F)cc3)c(O)c(=O)n2C)C1` (centres undefined), the IC95 in assay [1] and in assay [3] was 250 nM each time. Moreover, in assay [2], the pIC50 was 6.60.
For `C[C@H]1C[C@@H](c2nc(C(=O)NCc3ccc(F)cc3)c(O)c(=O)n2C)N(C)C1`, the IC95 in assay [1] and in assay [3] was more than 1000 nM in each case. The pIC50 in assay [2] is 8.00.

The values above are taken from ChEMBL document CHEMBL1148802, “Discovery and synthesis of HIV integrase inhibitors: development of potent and orally bioavailable N-methyl pyrimidones” (J Med Chem, 2007).
